# Like-named read-outs stand apart in the source and are kept apart here.
# Test system: cigarette smoke-induced 3-nitrotyrosine formation in the lung parenchyma
# Conditions: for 3-nitrotyrosine stained surface area, mean ± SEM: n=5 mice, room air 0.24 ± 0.09, cigarette smoke + diluent 3.07 ± 0.39
# Protocol: 5-amino-2,3-dihydro-1,4-phthalazinedione sodium salt Form I was tested in an isolated, ventilated and perfused mouse lung system that was stimulated with cigarette smoke.
# The isolated, ventilated and perfused mouse lung system (ILU) is an established model for studying acute effects of various conditions and drugs on lung parenchyma and vasculature. It is mainly used for examining effects of hypoxia and for evaluating the efficacy of potential drugs on the hypoxic pulmonary vasoreaction (cf. Weissmann et al. (2006) Proc Natl Acad Sci USA 103: 19093-19098).
# C57BL/6J mice (n=25, 5 per group; male/female, 3-6 months, 20-30 g; Charles River GmbH, Sulzfeld, Germany) were anesthetized with a ketamine (100 mg/kg body weight) and xylazine (20 mg/kg body weight) intraperitoneal injection (Ceva Tiergesundheit GmbH, Dusseldorf, Germany) containing heparin (50 I.E. heparin/g body weight; Ratiopharm GmbH, Ulm, Germany). The lungs and the heart were removed from the chest cavity and placed on the ILU system (see FIGS. 1A and 1B). Lungs were ventilated in an isolated chamber using normoxic gas (21% O2, 5% CO2, 74% N2; 150 breaths per minute at the PEEP (positive end-expiratory pressure) of 3 cm H2O) and perfused with a modified Krebs-Henseleit buffer (120.0 mM NaCl, 4.3 mM KCl, 1.1 mM KH2PO4, 2.4 mM CaCl2, 1.3 mM MgCl2, 13.14 mM glucose, 0.25 mM hydroxyethyl starch 200000/0.5, 25.0 mM NaHCO3 adjusted to a constant pH range of […] L-arginine; Serag-Wissner GmbH & Co. KG, Naila, Germany) at a temperature of 37° C. Lung weight, right and left ventricle pressure, as well as ventilatory pressure were monitored and recorded during the whole experimental procedure. After 5-10 minutes, when the lung was properly flushed and all the parameters were stable, 5-amino-2,3-dihydro-1,4-phthalazinedione sodium salt was applied by adding 150 μl of a stock solution to 15 ml of the circulating perfusion buffer. The substance was applied 10 minutes prior to the first cigarette smoke application. Cigarette smoke was applied via trachea while lung is perfused with the buffer containing 5-amino-2,3-dihydro-1,4-phthalazinedione sodium salt. Cigarette smoke was prepared freshly before each application, by burning one cigarette (research cigarettes 3R4F, University of Kentucky, USA) in one minute using normoxic gas at the flow of 11/min and collected in a 1 I glass bottle containing 5 g silica gel for removing the moist from the cigarette smoke. 50 ml of the cigarette smoke were taken via a syringe and applied to the lung via trachea (FIG. 1A) in deep breaths (periodic inflation for 3-4 s) over a period of 5 min. The application was done manually while carefully monitoring the inspiratory pressure to avoid damage of the lung. The cigarette smoke application was repeated three times with a 1 hour break in-between.
# Five treatment groups (n=5, respectively) were investigated: • A: room air exposure • B: cigarette smoke+diluent (buffer solution) • C: cigarette smoke+0.5 mM 5-amino-2,3-dihydro-1,4-phthalazinedione sodium salt • D: cigarette smoke+1 mM 5-amino-2,3-dihydro-1,4-phthalazinedione sodium salt • E: cigarette smoke+2 mM 5-amino-2,3-dihydro-1,4-phthalazinedione sodium salt
# 5-amino-2,3-dihydro-1,4-phthalazinedione sodium salt Form I was dissolved in water for injection (vehicle) at the required concentrations described above. Stock solutions were prepared in water for injection. Further 1:100 dilutions were made with modified Krebs-Henseleit buffer (see above). Stock solutions were stored at −70° C. in appropriate aliquots. The required amount of stock solution was thawed, and the corresponding working solution was prepared for immediate use.
# One hour after the third cigarette smoke application lungs were removed from the system and fixed by inflating with formalin solution (via trachea) at the pressure of 12-15 cm H2O for two hours at room temperature.
smiles,measurement,setting,value
"Nc1cccc2c(=O)[nH][nH]c(=O)c12.[Na] [5-amino-2,3-dihydro-1,4-phthalazinedione sodium salt]",effect on cigarette smoke induced 3-nitrotyrosine formation (in words),0.5 mM in perfusion buffer (FIG. 2C),moderate effect
same,effect on cigarette smoke induced 3-nitrotyrosine formation (in words),1 mM in perfusion buffer (FIG. 2D),almost completely abolished
same,effect on cigarette smoke induced 3-nitrotyrosine formation (in words),2 mM in perfusion buffer (FIG. 2E),almost completely abolished
same,"3-nitrotyrosine stained surface area, mean ± SEM",cigarette smoke + 0.5 mM in perfusion buffer,2.24 ± 0.28 % area
same,"3-nitrotyrosine stained surface area, mean ± SEM",cigarette smoke + 1 mM in perfusion buffer,0.72 ± 0.26 % area
same,"3-nitrotyrosine stained surface area, mean ± SEM",cigarette smoke + 2 mM in perfusion buffer,0.37 ± 0.13 % area
same,"cigarette smoke-induced 3-nitrotyrosine formation in the lung parenchyma, conclusion (in words)","pre-treatment 10 minutes prior to the first cigarette smoke application, ILU model",prevents cigarette smoke-induced 3-nitrotyrosine formation
same,ROS/RNS levels in cigarette smoke-stimulated mouse lung (in words),"summary over 0.5, 1 and 2 mM",dose-dependent reduction of ROS/RNS levels down to control levels

# From patent publication US12616695B2, “Use of 5-amino-2,3-dihydro-1,4-phthalazinedione in the treatment of rare chronic inflammatory pulmonary diseases” (Metriopharm AG, priority 2020, dated 2026)
